Experimental data taken from ChEMBL document CHEMBL1147837, “Methyl 2-(2-(4-formylphenoxy)acetamido)-2-substituted acetate derivatives: a new class of acetylcholinesterase inhibitors” (Bioorg Med Chem Lett, 2007).
pIC50: −log10 of the molar value.

Tests used:
Acetylcholinesterase = Acetylcholinesterase (Torpedo californica, UniProt P04058); test: Inhibition of AChE
[1] = Selectivity for Torpedo californica AChE over horse BuChE
Butyrylcholinesterase = Butyrylcholinesterase (Equus caballus, UniProt Q9N1N9); test: Inhibition of BuChE in horse serum
Chain of Butyrylcholinesterase (Q9N1N9 whole entry): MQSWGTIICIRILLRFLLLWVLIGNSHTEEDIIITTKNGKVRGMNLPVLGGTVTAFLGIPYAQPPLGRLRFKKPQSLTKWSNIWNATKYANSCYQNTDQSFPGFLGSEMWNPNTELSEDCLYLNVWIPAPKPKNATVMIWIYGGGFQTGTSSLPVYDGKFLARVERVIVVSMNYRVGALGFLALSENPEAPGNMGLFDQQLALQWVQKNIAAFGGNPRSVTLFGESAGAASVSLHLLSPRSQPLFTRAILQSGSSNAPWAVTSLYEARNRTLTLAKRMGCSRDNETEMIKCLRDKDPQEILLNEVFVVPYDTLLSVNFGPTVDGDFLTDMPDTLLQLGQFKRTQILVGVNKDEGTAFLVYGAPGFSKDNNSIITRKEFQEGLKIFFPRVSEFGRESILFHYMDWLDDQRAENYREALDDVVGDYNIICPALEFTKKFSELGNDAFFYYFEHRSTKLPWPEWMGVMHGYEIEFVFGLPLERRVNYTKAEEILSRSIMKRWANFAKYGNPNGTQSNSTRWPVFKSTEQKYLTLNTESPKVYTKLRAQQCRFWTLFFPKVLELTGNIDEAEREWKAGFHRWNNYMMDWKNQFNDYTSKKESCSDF

Chain of Acetylcholinesterase (P04058 whole entry): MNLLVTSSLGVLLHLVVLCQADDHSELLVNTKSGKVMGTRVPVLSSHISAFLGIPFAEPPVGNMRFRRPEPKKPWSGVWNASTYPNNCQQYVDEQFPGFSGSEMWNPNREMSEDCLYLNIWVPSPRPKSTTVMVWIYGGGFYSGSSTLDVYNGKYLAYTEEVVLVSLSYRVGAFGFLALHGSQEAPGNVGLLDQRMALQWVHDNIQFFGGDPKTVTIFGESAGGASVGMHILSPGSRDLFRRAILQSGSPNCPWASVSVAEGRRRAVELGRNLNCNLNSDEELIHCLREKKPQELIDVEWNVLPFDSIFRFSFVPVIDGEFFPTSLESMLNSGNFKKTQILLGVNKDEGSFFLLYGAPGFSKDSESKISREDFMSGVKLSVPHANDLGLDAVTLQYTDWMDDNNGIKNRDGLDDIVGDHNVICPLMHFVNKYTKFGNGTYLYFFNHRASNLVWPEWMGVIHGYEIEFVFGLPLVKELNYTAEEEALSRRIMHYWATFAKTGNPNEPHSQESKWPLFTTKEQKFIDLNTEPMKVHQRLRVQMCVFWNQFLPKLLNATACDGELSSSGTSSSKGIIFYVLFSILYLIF

COC(=O)CCC(NC(=O)COc1ccc(C=O)cc1)C(=O)OC (stereo not drawn)
pIC50 (Acetylcholinesterase): < 3.70

O=Cc1ccc(O)cc1 [4-HYDROXYBENZALDEHYDE]
pIC50 (Acetylcholinesterase): < 3.00

COC(=O)CNC(=O)COc1ccc(C=O)cc1
pIC50 (Acetylcholinesterase): 4.00

COC(=O)C(Cc1c[nH]c2ccccc12)NC(=O)COc1ccc(C=O)cc1 (stereo not drawn)
Ratio IC50 [1]: 121 | pIC50 (Acetylcholinesterase): 6.55 | pIC50 (Butyrylcholinesterase): 4.47

COC(=O)C(Cc1ccccc1)NC(=O)COc1ccc(C=O)cc1 (stereo not drawn)
pIC50 (Acetylcholinesterase): 5.30

COC(=O)C(C)NC(=O)COc1ccc(C=O)cc1 (stereo not drawn)
pIC50 (Acetylcholinesterase): 6.72
